Measurements: patent US20110275599A1, “USE OF COLD-STABILIZED METHYLATED VEGETABLE OILS AS AN AGRICULTURAL CHEMICAL COFORMULANT” (priority 2010, published 2011)

Test: High throughput solubility screen in Permaflo methylated soybean oil
Type: physicochemical
Procedure: The solubility of several agricultural active ingredients in Permaflo methylated soybean oil was determined using a high throughput solubility screen.
Liquid handler was calibrated for each liquid and vials were tared. Active ingredients were melted or dissolved and then transferred into tared vials. Solvent was removed or active was allowed to crystallize before weighing. Permaflo methylated soybean oil was added in desired quantities; vials were weighed, and capped. Mixtures were agitated (220 rpm) for 48 hours at 0° C. […] Samples were held at 0° C. for 24 hours before imaging. Samples were transferred to shaker plate on bench and were agitated for 48 hours, before seeding, holding for 24 hours and imaging. Samples were then transferred to 40° C. shaker plate, agitated for 48 hours, seeded, held and then imaged again. All samples were imaged using normal light.

With `CCOP(=S)(OCC)Oc1nc(Cl)c(Cl)cc1Cl` [Chlorpyrifos] the “solubility in Permaflo methylated soybean oil” value (from here on “solubility”) (0° C.) was 35%, the “solubility” value (24° C.) was 55% and the “solubility” value (40° C.) was over 60%.

With `Nc1c(Cl)c(F)nc(OCC(=O)O)c1Cl` [Fluroxypyr] the “solubility” value (0° C.) was 25%, the “solubility” value (24° C.) was 35% and the “solubility” value (40° C.) was 55%.
